Laboratory results from ChEMBL document CHEMBL1201862, “PubChem BioAssay data set” (2004).
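1) Cells in 96-well plates. 2) Compound, 48 h, 5 concentrations. 3) Linear interpolation between surrounding doses. 4) Unreached endpoint = highest concentration. GI50 is the concentration that inhibits growth by half.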 Calls of active or inactive are those of the source. Cut-off read from the data, not from the text of the source: active = GI50 up to about 1.1 µM and inactive = higher.

Assays:
Test in all cases: NCI-60 cell line screen, 48 h
786-0 = system: 786-0
A498 = system: A498
A549 = system: A549
ACHN = system: ACHN
BT-549 = system: BT-549
CAKI-1 = system: CAKI-1
CCRF-CEM = system: CCRF-CEM
COLO 205 = system: COLO 205
DU-145 = system: DU-145
EKVX = system: EKVX
HCC 2998 = system: HCC 2998
HCT-116 = system: HCT-116
HCT-15 = system: HCT-15
HL-60 = system: HL-60
HOP-62 = system: HOP-62
HOP-92 = system: HOP-92
HT-29 = system: HT-29
Hs-578T = system: Hs-578T
IGROV-1 = system: IGROV-1
K562 = system: K562
KM12 = system: KM12
LOX IMVI = system: LOX IMVI
M14 = system: M14
MCF7 = system: MCF7
MDA-MB-231 = system: MDA-MB-231
MDA-MB-435 = system: MDA-MB-435
MDA-N = system: MDA-N
MOLT-4 = system: MOLT-4
NCI-H226 = system: NCI-H226
NCI-H23 = system: NCI-H23
NCI-H460 = system: NCI-H460
NCI-H522 = system: NCI-H522
NCI/ADR-RES = system: NCI/ADR-RES
OVCAR-3 = system: OVCAR-3
OVCAR-4 = system: OVCAR-4
OVCAR-5 = system: OVCAR-5
OVCAR-8 = system: OVCAR-8
PC-3 = system: PC-3
RPMI-8226 = system: RPMI-8226
RXF 393 = system: RXF 393
SF-268 = system: SF-268
SF-295 = system: SF-295
SF-539 = system: SF-539
SK-MEL-2 = system: SK-MEL-2
SK-OV-3 = system: SK-OV-3
SN12C = system: SN12C
SNB-19 = system: SNB-19
SNB-75 = system: SNB-75
SW-620 = system: SW-620
T47D = system: T47D
TK-10 = system: TK-10
U-251 = system: U-251
UACC-257 = system: UACC-257
UACC-62 = system: UACC-62
UO-31 = system: UO-31
Malme-3M = system: Malme-3M
SK-MEL-28 = system: SK-MEL-28
SK-MEL-5 = system: SK-MEL-5
SR = system: SR

Measured: GI50

Cc1nc(Nc2ccccc2Cl)sc1C(=O)CC(=O)C(N)=O
33.7 µM: HCT-15
inactive: 786-0 58.9 µM | A498 19.7 µM | A549 41.8 µM | ACHN 32.7 µM | BT-549 > 100 µM | CAKI-1 > 100 µM | CCRF-CEM 32.6 µM | COLO 205 21.2 µM | DU-145 > 100 µM | EKVX 18.2 µM | HCC 2998 51.4 µM | HCT-116 10.9 µM | HL-60 11.8 µM | HOP-62 > 100 µM | HOP-92 7.98 µM | HT-29 18.8 µM | Hs-578T 59.2 µM | IGROV-1 39.3 µM | K562 33.4 µM | KM12 13.2 µM | LOX IMVI 27.4 µM | M14 75.3 µM | MCF7 29.3 µM | MDA-MB-231 57.4 µM | MDA-MB-435 16 µM | MDA-N 19.4 µM | MOLT-4 26.4 µM | NCI-H226 22.7 µM | NCI-H23 28.2 µM | NCI-H460 32.6 µM | NCI-H522 1.96 µM | NCI/ADR-RES 31.3 µM | OVCAR-3 > 100 µM | OVCAR-4 > 100 µM | OVCAR-5 > 100 µM | OVCAR-8 54.7 µM | PC-3 19.7 µM | RPMI-8226 26.3 µM | RXF 393 48.8 µM | SF-268 > 100 µM | SF-295 34.8 µM | SF-539 76.4 µM | SK-MEL-2 35.1 µM | SK-OV-3 44.9 µM | SN12C 37.8 µM | SNB-19 41 µM | SNB-75 6.87 µM | SW-620 29 µM | T47D > 100 µM | TK-10 > 100 µM | U-251 41.9 µM | UACC-257 > 100 µM | UACC-62 35.1 µM | UO-31 21.7 µM

O=C(O)/C(=C\c1ccc(O)cc1)c1cccc2ccccc12
inactive: 786-0 > 100 µM | A498 > 100 µM | A549 > 100 µM | ACHN > 100 µM | BT-549 > 100 µM | CAKI-1 > 100 µM | DU-145 > 100 µM | EKVX 90.6 µM | HCC 2998 > 100 µM | HCT-116 > 100 µM | HOP-62 35 µM | HOP-92 > 100 µM | HT-29 > 100 µM | Hs-578T > 100 µM | IGROV-1 > 100 µM | K562 > 100 µM | KM12 > 100 µM | LOX IMVI > 100 µM | M14 > 100 µM | MDA-MB-231 > 100 µM | MDA-MB-435 > 100 µM | MDA-N > 100 µM | MOLT-4 > 100 µM | Malme-3M > 100 µM | NCI-H226 > 100 µM | NCI-H23 > 100 µM | NCI-H460 > 100 µM | NCI-H522 > 100 µM | NCI/ADR-RES > 100 µM | OVCAR-3 64.4 µM | OVCAR-4 > 100 µM | OVCAR-5 > 100 µM | OVCAR-8 > 100 µM | PC-3 > 100 µM | RXF 393 > 100 µM | SF-268 > 100 µM | SF-295 > 100 µM | SK-MEL-28 > 100 µM | SK-MEL-2 > 100 µM | SK-MEL-5 > 100 µM | SN12C > 100 µM | SNB-19 > 100 µM | SNB-75 > 100 µM | SR > 100 µM | SW-620 > 100 µM | T47D > 100 µM | TK-10 > 100 µM | U-251 > 100 µM | UACC-257 > 100 µM | UACC-62 > 100 µM | UO-31 > 100 µM
> 100 µM: HCT-15
